Results published in ChEMBL document CHEMBL1201862, “PubChem BioAssay data set” (2004).
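Tested at 5 concentrations; 48 h exposure; 96-well plates; endpoints linearly interpolated, else capped at highest concentration. GI50 marks 50% less growth.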 Activity calls are given as the source filed them. No stated cut-off is given here; in the data, active = GI50 up to about 1.1 µM and inactive = higher.

Legend:
Assay in all cases: growth of human tumour cells (NCI), 48 h
A549 = tested on: A549
DU-145 = tested on: DU-145
HL-60 = tested on: HL-60
HOP-62 = tested on: HOP-62
KM12 = tested on: KM12
M14 = tested on: M14
MDA-N = tested on: MDA-N
Malme-3M = tested on: Malme-3M
NCI/ADR-RES = tested on: NCI/ADR-RES
OVCAR-3 = tested on: OVCAR-3
OVCAR-5 = tested on: OVCAR-5
OVCAR-8 = tested on: OVCAR-8
RPMI-8226 = tested on: RPMI-8226
SF-539 = tested on: SF-539
SK-MEL-2 = tested on: SK-MEL-2
SK-MEL-5 = tested on: SK-MEL-5
SK-OV-3 = tested on: SK-OV-3
SW-620 = tested on: SW-620
UACC-257 = tested on: UACC-257
UACC-62 = tested on: UACC-62

With `C=C1C(=O)O[C@@H]2C[C@@H](C)[C@@H]3C=CC(=O)[C@@]3(C)[C@@H](OC(=O)CCCC(=O)O[C@H]3[C@@H]4C(=C)C(=O)O[C@@H]4C[C@@H](C)[C@@H]4C=CC(=O)[C@]43C)[C@H]12` the GI50 (A549) was 1.63 µM (inactive), the GI50 (DU-145) was 0.28 µM (active) and the GI50 (HL-60) was < 0.01 µM (active). The GI50 (HOP-62) was 1.04 µM (active), the GI50 (KM12) was 0.231 µM (active) and the GI50 (M14) was 0.0217 µM (active). For the same compound, the GI50 (MDA-N) was 0.0183 µM (active), the GI50 (Malme-3M) was 0.0176 µM (active) and the GI50 (NCI/ADR-RES) was 0.396 µM (active). For the same compound, the GI50 (OVCAR-3) was 0.0398 µM (active), the GI50 (OVCAR-5) was 0.139 µM (active) and the GI50 (OVCAR-8) was 0.0131 µM (active). For the same compound, the GI50 (RPMI-8226) was 0.0107 µM (active), the GI50 (SF-539) was 0.0762 µM (active) and the GI50 (SK-MEL-2) was 0.152 µM (active). For the same compound, the GI50 (SK-MEL-5) was 0.134 µM (active), the GI50 (SK-OV-3) was 1.35 µM (inactive) and the GI50 (SW-620) was 0.0144 µM (active). For the same compound, the GI50 (UACC-257) was 0.114 µM (active) and the GI50 (UACC-62) was 0.0565 µM (active).

`Cc1nnc2sc(-c3ccc(-c4ccccc4Cl)o3)nn12` was tested, and the GI50 (A549) was 34.8 µM (inactive), the GI50 (DU-145) was 36.6 µM (inactive) and the GI50 (HL-60) was 19.8 µM (inactive). The GI50 (HOP-62) was > 100 µM (inactive), the GI50 (KM12) was 35.2 µM (inactive) and the GI50 (M14) was 32 µM (inactive). For the same compound, the GI50 (MDA-N) was 17.9 µM (inactive), the GI50 (Malme-3M) was 47.3 µM (inactive) and the GI50 (NCI/ADR-RES) was 21.9 µM (inactive). For the same compound, the GI50 (OVCAR-3) was 27 µM (inactive), the GI50 (OVCAR-5) was > 100 µM (inactive) and the GI50 (OVCAR-8) was 19.8 µM (inactive). For the same compound, the GI50 (RPMI-8226) was 20.4 µM (inactive), the GI50 (SF-539) was 19.7 µM (inactive) and the GI50 (SK-MEL-2) was 26.1 µM (inactive). For the same compound, the GI50 (SK-MEL-5) was 20.9 µM (inactive), the GI50 (SK-OV-3) was 57.9 µM (inactive) and the GI50 (SW-620) was 20.9 µM (inactive). For the same compound, the GI50 (UACC-257) was 44.5 µM (inactive) and the GI50 (UACC-62) was 35.2 µM (inactive).

`O=C(O)/C=C/C=C/c1ccc2c(c1)OCO2` [PIPERIC ACID] was tested, and the GI50 (A549) was > 100 µM (inactive), the GI50 (DU-145) was > 100 µM (inactive) and the GI50 (HL-60) was > 100 µM (inactive). For the same compound, the GI50 (HOP-62) was > 100 µM (inactive), the GI50 (KM12) was > 100 µM (inactive) and the GI50 (M14) was > 100 µM (inactive). For the same compound, the GI50 (MDA-N) was > 100 µM (inactive), the GI50 (Malme-3M) was > 100 µM (inactive) and the GI50 (NCI/ADR-RES) was > 100 µM (inactive). The GI50 (OVCAR-3) was > 100 µM (inactive), the GI50 (OVCAR-5) was > 100 µM (inactive) and the GI50 (OVCAR-8) was > 100 µM (inactive). The GI50 (RPMI-8226) was > 100 µM (inactive), the GI50 (SF-539) was > 100 µM (inactive) and the GI50 (SK-MEL-2) was > 100 µM (inactive). The GI50 (SK-MEL-5) was 94.4 µM (inactive), the GI50 (SK-OV-3) was > 100 µM (inactive) and the GI50 (SW-620) was > 100 µM (inactive). The GI50 (UACC-257) was > 100 µM (inactive) and the GI50 (UACC-62) was > 100 µM (inactive).

With `CC1CC(C)C(C#N)N(C)c2ccccc21` (centres undefined) the GI50 (A549) was > 100 µM (inactive), the GI50 (DU-145) was > 100 µM (inactive) and the GI50 (HL-60) was 26.7 µM (inactive). The GI50 (HOP-62) was > 100 µM (inactive), the GI50 (KM12) was > 100 µM (inactive) and the GI50 (M14) was > 100 µM (inactive). For the same compound, the GI50 (MDA-N) was > 100 µM (inactive), the GI50 (Malme-3M) was > 100 µM (inactive) and the GI50 (NCI/ADR-RES) was > 100 µM (inactive). The GI50 (OVCAR-3) was > 100 µM (inactive), the GI50 (OVCAR-5) was > 100 µM (inactive) and the GI50 (OVCAR-8) was > 100 µM (inactive). The GI50 (RPMI-8226) was 37.2 µM (inactive), the GI50 (SF-539) was > 100 µM (inactive) and the GI50 (SK-MEL-2) was > 100 µM (inactive). For the same compound, the GI50 (SK-MEL-5) was 37.7 µM (inactive), the GI50 (SK-OV-3) was > 100 µM (inactive) and the GI50 (SW-620) was > 100 µM (inactive). The GI50 (UACC-257) was > 100 µM (inactive) and the GI50 (UACC-62) was 97.5 µM (inactive).

In the case of `CC(C)(C)N/N=C(\C(=O)Nc1ccc([N+](=O)[O-])cc1[N+](=O)[O-])c1nc2ccc([N+](=O)[O-])cc2nc1O`, the GI50 (A549) is reported as > 100 µM (inactive), the GI50 (DU-145) is reported as > 100 µM (inactive) and the GI50 (HL-60) is reported as 47.3 µM (inactive). The GI50 (KM12) was 34.4 µM (inactive), the GI50 (M14) was > 100 µM (inactive) and the GI50 (MDA-N) was > 100 µM (inactive). The GI50 (Malme-3M) was > 100 µM (inactive), the GI50 (NCI/ADR-RES) was > 100 µM (inactive) and the GI50 (OVCAR-3) was > 100 µM (inactive). For the same compound, the GI50 (OVCAR-5) was > 100 µM (inactive), the GI50 (OVCAR-8) was 48.5 µM (inactive) and the GI50 (RPMI-8226) was 13.2 µM (inactive). For the same compound, the GI50 (SF-539) was > 100 µM (inactive), the GI50 (SK-MEL-2) was > 100 µM (inactive) and the GI50 (SK-MEL-5) was 13.6 µM (inactive). For the same compound, the GI50 (SK-OV-3) was > 100 µM (inactive), the GI50 (SW-620) was > 100 µM (inactive) and the GI50 (UACC-257) was > 100 µM (inactive). For the same compound, the GI50 (UACC-62) was > 100 µM (inactive).

For `O=C1C=C(N2CCN(CCOCCO)CC2)C(=O)c2c(O)ccc(O)c21`, the GI50 (A549) was 3.56 µM (inactive), the GI50 (DU-145) was 3.42 µM (inactive) and the GI50 (HL-60) was 2.52 µM (inactive). The GI50 (HOP-62) was 17.9 µM (inactive), the GI50 (KM12) was 12 µM (inactive) and the GI50 (M14) was 1.56 µM (inactive). For the same compound, the GI50 (MDA-N) was 1.84 µM (inactive), the GI50 (Malme-3M) was 1.52 µM (inactive) and the GI50 (NCI/ADR-RES) was 2.94 µM (inactive). For the same compound, the GI50 (OVCAR-3) was 1.82 µM (inactive), the GI50 (OVCAR-5) was 3.9 µM (inactive) and the GI50 (OVCAR-8) was 3.44 µM (inactive). For the same compound, the GI50 (RPMI-8226) was 4.44 µM (inactive), the GI50 (SF-539) was 10.6 µM (inactive) and the GI50 (SK-MEL-2) was 6.97 µM (inactive). For the same compound, the GI50 (SK-MEL-5) was 1.72 µM (inactive), the GI50 (SK-OV-3) was 20.6 µM (inactive) and the GI50 (SW-620) was 2.31 µM (inactive). The GI50 (UACC-257) was 1.62 µM (inactive) and the GI50 (UACC-62) was 1.82 µM (inactive).

In the case of `CC(NC(=O)/C(=C/c1ccccc1)NC(=O)c1ccccc1)C(=O)O` (centres undefined), the GI50 (A549) is reported as > 100 µM (inactive), the GI50 (DU-145) is reported as > 100 µM (inactive) and the GI50 (HL-60) is reported as 77.1 µM (inactive). For the same compound, the GI50 (HOP-62) was > 100 µM (inactive), the GI50 (KM12) was 6.59 µM (inactive) and the GI50 (M14) was > 100 µM (inactive). The GI50 (MDA-N) was 55.8 µM (inactive), the GI50 (Malme-3M) was > 100 µM (inactive) and the GI50 (NCI/ADR-RES) was 40.5 µM (inactive). For the same compound, the GI50 (OVCAR-3) was > 100 µM (inactive), the GI50 (OVCAR-5) was > 100 µM (inactive) and the GI50 (OVCAR-8) was 50 µM (inactive). The GI50 (RPMI-8226) was > 100 µM (inactive), the GI50 (SF-539) was 20.6 µM (inactive) and the GI50 (SK-MEL-2) was > 100 µM (inactive). For the same compound, the GI50 (SK-MEL-5) was > 100 µM (inactive), the GI50 (SK-OV-3) was 87.3 µM (inactive) and the GI50 (SW-620) was > 100 µM (inactive). The GI50 (UACC-257) was > 100 µM (inactive) and the GI50 (UACC-62) was 57 µM (inactive).
